# Test results: PMC7961380, “A Systematic Study of the In Vitro Pharmacokinetics and Estimated Human In Vivo Clearance of Indole and Indazole-3-Carboxamide Synthetic Cannabinoid Receptor Agonists Detected on the Illicit Drug Market” (Molecules, 2021)
# Read-outs that look alike come from different tables or passages of the source.
# Key:
# [1] = tested on: human hepatocytes (HHeps); details: HHeps (asterisk); ref 13 (JWH-122, MAM-2201, Cl-, Br-, I-JWH-122), 105 (AM1220); cited from earlier work
# [2] = Chromatographic hydrophobicity index (CHI) log D at pH 7.4; details: for chromatographic logD: reversed-phase HPLC, Acquity BEH C18 column
# Protocol: Chromatographic hydrophobicity index (CHI) log D samples (see below) were analysed using high-performance liquid chromatography (HPLC) with a Shimadzu Nexera X2 HPLC coupled to a Shimadzu SPD-30 MA photodiode array detector (PDA) (Shimadzu, Kyoto, Japan). […] The sample chamber was maintained at 25 °C. Gradient elution was performed, with mobile phase (MP) consisting of ammonium acetate in water (10 mM, pH 7.4) (MP A) and acetonitrile (MP B).
# A calibration mix of ten compounds at 10 µg mL^−1 in 1:1 (v/v) water:ACN was used (theophylline, phenyltetrazole, benzimidazole, colchicine, phenyltheophilline, acetophenone, indole, propiophenone, butyrophenone and valerophenone (all Sigma-Aldrich)). Test compounds were prepared at 0.25 mM in 1:1 (v/v) water:ACN. Samples (n = 2 for calibration standards; n = 1 for test compounds) were analysed using UPLC-PDA as described above. Retention times of calibration compounds are used to calculate retention factor (k), which is plotted against literature CHI values for each compound.
# Where tr is the retention time of the analyte and t0 is the retention time of an unretained compound
# Calculation of chromatographic hydrophobicity index (CHI)
# CHI = (𝑘 x slope) − intercept Eqn.4
# Where k is the retention factor of the analyte.
# Calculation of CHI Log D [1]
# Where CHI is the chromatographic hydrophobicity index obtained using Equation 4
# [3] = HLM, ref 14 (THJ-018, THJ-2201), 15 (NNEI, MN-18), 106 (NM-2201), 107 (BIM-2201), 108 (STS-135), 16 (AB-PINACA, 5F-AB-PINACA), 54 (5F-MDMB-PINACA), 69 (AB-FUBINACA), 17 (ADB-FUBINACA), 97 (FDU-PB-22, FUB-PB-22), cited from earlier work; for CLint micr / t1/2: 95 (Cumyl-PICA, 5F-Cumyl-PICA), 109 (5F-APP-PICA, 5F-APP-PINACA; for CLint micr: 73 (5F-AMB-PINACA); for t1/2 / CLint: 57 (AMB-4en-PICA); for t1/2: 73 (AMB-PINACA, 5F-AMB-PINACA)
# [4] = Metabolic stability, pooled human liver microsome incubations; details: for CLH prediction lower than literature prediction without PPB / EH prediction lower than literature prediction without PPB: vs refs 69 (AB-FUBINACA), 54 (5F-MDMB-PINACA); for Predicted In Vivo Hepatic Clearance, CLH: from pHLM CLint, well-stirred model with plasma fu, Q 21 mL min^−1 kg^−1; for CLint scaled at 0.5 µM / half-life at 0.5 µM: human, microsomes; for CLint scaled at 0.5 µM: pH 7.4, Intrinsic clearance; for half-life at 0.5 µM: pH 7.4, T1/2 (min), pHLM 0.5 mg mL^−1, 0.5 µM, NADPH, 37 °C; for half-life at 0.5 µM / Microsomal Intrinsic Clearance, CLint micr: n ≥ 3 ± SD
# [5] = tested on: pooled human cryopreserved hepatocytes (pHHeps); assay: Metabolic stability, pooled human cryopreserved hepatocyte incubations; details: for Predicted In Vivo Hepatic Clearance, CLH: from pHHeps CLint, well-stirred model with plasma fu, Q 21 mL min^−1 kg^−1
# [6] = as above; details: human, hepatocytes; for CLint scaled at 0.5 µM: Intrinsic clearance, pHHeps, alternative hepatocyte cell density 99x10^6 hepatocytes per gram liver
# [7] = Plasma protein binding by equilibrium dialysis; format: in vitro ADME, human; details: 37 °C; for fraction unbound at 5 h, 10 µg mL^−1: human, pooled human plasma, pH 7.4, equilibrium dialysis 5 h
# [8] = Short-term plasma stability with and without esterase inhibitors; details: human, pH 7.4, Parent Compound Remaining (%), 3 h, 37 °C
# Protocol: The pooled plasma used for both plasma stability and plasma binding studies originated from 50 donors, collected as whole blood from donors in the United States at an FDA-approved collection center, processed into plasma by centrifugation and immediately frozen (Innovative Research; Novi, MI, USA) and purchased from Patricell (Nottingham, UK). […] Stock solutions were prepared in DMSO. […] For incubations without inhibitor an equivalent volume of DMSO was included. Plasma mixture was pre-incubated at 37 °C for 5 min. Test compounds (5 µM) and procaine (positive control, 50 µM) were added to pre-warmed plasma mixture containing inhibitors. Incubation volume was 1 mL. Samples were mixed and 80 µL was immediately sampled and quenched into 200 µL ACN spiked with donepezil (internal standard (IS), 50 ng mL^−1). […] Peak area ratio of analyte to IS was used to determine half-lives of test compounds in plasma, both with and without the presence of esterase inhibitors.
# The human plasma used was pooled from 50 donors, and was collected as whole blood from donors in
# the United States at an FDA-approved collection center, processed into plasma by centrifugation and
# The stability of the tested SCRAs, select metabolites and procaine control in pooled human plasma over
# inhibitors bis(4-nitrophenyl) phosphate (BNPP) and phenyl methyl sulphonyl fluoride (PMSF) is
# [9] = pHHeps, 99x10^6 hepatocytes per gram liver
# [10] = T1/2 (min), pHHeps 0.25 million cells mL^−1, 0.5 µM, 37 °C, n ≥ 3 ± SD
# [11] = pHLM, alternative microsomal scaling factor 32 mg microsomal protein per gram liver
# [12] = pHLM, alternative microsomal scaling factor 45 mg microsomal protein per gram liver
# [13] = pHLM, scaling factor 32 mg microsomal protein per gram liver
# [14] = pHLM, scaling factor 45 mg microsomal protein per gram liver
# [15] = Esterase Inhibitors, pH 7.4, BNPP and PMSF 500 µM each
# [16] = plasma, No Esterase Inhibitors, pH 7.4, pooled human plasma
compound,measurement,setting,value
Cc1ccc(C(=O)c2cn(CCCCCBr)c3ccccc23)c2ccccc12 [Br-JWH-122],CLint,[1],497 mL/min/kg
same,t1/2,[1],2.49 min
"COC(=O)[C@@H](NC(=O)c1nn(CCCCCF)c2ccccc12)C(C)C [5F-AMB-PINACA (10), methyl [1-(5-fluoropentyl)-1H-indazole-3-carbonyl]valinate]",chromatographic logD,[2],4.07
same,CLint micr,[3],670 µL/min/mg
same,t1/2,[3],1.0 min
"COC(=O)[C@@H](NC(=O)c1cn(CC2CCCCC2)c2ccccc12)C(C)C [AMB-CHMICA (9), methyl [1-(cyclohexylmethyl)-1H-indole-3-carbonyl]valinate]",chromatographic logD,[2],4.77
"CCCCCn1cc(C(=O)c2ccc(C)c3ccccc23)c2ccccc21 [JWH-122, (4-methyl-1-naphthyl)-(1-pentylindol-3-yl)methanone]",CLint,[1],1350 mL/min/kg
same,t1/2,[1],0.95 min
"C=CCCCn1cc(C(=O)NC(C(=O)OC)C(C)(C)C)c2ccccc21 (centres unmarked) [MDMB-4en-PICA (12), methyl 3,3-dimethyl-2-[1-(pent-4-en-1-yl)-1H-indole-3-carboxamido]butanoate]",chromatographic logD,[2],4.4
"C=CCCCn1cc(C(=O)NC(C(=O)OC)C(C)C)c2ccccc21 (centres unmarked) [AMB-4en-PICA (7), methyl 3-methyl-2-[(1-pent-4-enylindole-3-carbonyl)amino] butanoate]",chromatographic logD,[2],3.97
same,t1/2,[3],2.1 min
same,CLint,[3],291 mL/min/kg
"methyl 2-[1-(5-fluoropentyl)-1H-indazole-3-carboxamido]-3,3-dimethylbutanoate [MDMB-FUBINACA (6)]",Experimental Log D7.4,"[2]; CHI log D, determined for the (S)-enantiomer, n = 1",4.69
"CC(C)C(NC(=O)c1nn(Cc2ccc(F)cc2)c2ccccc12)C(N)=O (centres unmarked) [AB-FUBINACA (8), N-(1-amino-3-methyl-1-oxobutan-2-yl)-1-(4-fluorobenzyl)-1H-indazole-3-carboxamide]",CLH prediction lower than literature prediction without PPB,[4]; pHLM,20 fold
same,EH prediction lower than literature prediction without PPB,[4]; pHLM,17 fold
same,chromatographic logD,[2],2.81
same,CLint micr,[3],11 µL/min/mg
same,t1/2,[3],62.6 min
same,CLint,[3],10.5 mL/min/kg
"COC(=O)C(NC(=O)c1nn(CCCCF)c2ccccc12)C(C)(C)C (centres unmarked) [4F-MDMB-BINACA (4), methyl 2-[1-(4-fluorobutyl)-1H-indazole-3-carboxamido]-3,3-dimethylbutanoate]",chromatographic logD,[2],4.18
"COC(=O)[C@@H](NC(=O)c1nn(Cc2ccc(F)cc2)c2ccccc12)C(C)C [AMB-FUBINACA (1), methyl [1-(4-fluorobenzyl)-1H-indazole-3-carbonyl]valinate]",chromatographic logD,[2],4.28
"COC(=O)[C@@H](NC(=O)c1cn(CCCCCF)c2ccccc12)C(C)(C)C [(S)-5F-MDMB-PICA (3), methyl 2-[1-(5-fluoropentyl)-1H-indole-3-carboxamido]-3,3-dimethylbutanoate]","Predicted In Vivo Hepatic Clearance, CLH",[5],7.87 ± 0.58 mL/min/kg
same,"Hepatic extraction ratio, EH",[5]; from pHHeps incubations,0.37 ± 0.027
same,"Hepatic extraction ratio, EH",[5]; [9],0.36 ± 0.027
same,"Predicted in vivo hepatic clearance, CLH",[5]; [9],7.49 ± 0.56 mL/min/kg
same,"% parent compound remaining, Average","[5]; pHHeps, 3 min",96.7%
same,"% parent compound remaining, Average","[5]; pHHeps, 6 min",91.2%
same,"% parent compound remaining, Average","[5]; pHHeps, 9 min",90.7%
same,"% parent compound remaining, Average","[5]; pHHeps, 15 min",77.0%
same,"% parent compound remaining, Average","[5]; pHHeps, 30 min",57.6%
same,"% parent compound remaining, Average","[5]; pHHeps, 45 min",42.5%
same,"% parent compound remaining, Average","[5]; pHHeps, 60 min",30.9%
same,CLint scaled at 0.5 µM,[6],188 mL/min/kg
same,half-life at 0.5 µM,[6]; [10],38 ± 4.6 min
same,"Predicted In Vivo Hepatic Clearance, CLH",[4],8.01 ± 0.84 mL/min/kg
same,"Hepatic extraction ratio, EH",[4]; from pHLM incubations,0.38 ± 0.04
same,CLint scaled at 0.5 µM,[4]; [11],128 mL/min/kg
same,CLint scaled at 0.5 µM,[4]; [12],181 ± 31.6 mL/min/kg
same,half-life at 0.5 µM,[4],9 ± 1.4 min
same,"% parent compound remaining, Average","[4]; pHLM, 3 min",63.9%
same,"% parent compound remaining, Average","[4]; pHLM, 6 min",56.3%
same,"% parent compound remaining, Average","[4]; pHLM, 9 min",49.2%
same,"% parent compound remaining, Average","[4]; pHLM, 15 min",32.1%
same,"% parent compound remaining, Average","[4]; pHLM, 30 min",12.8%
same,"Microsomal Intrinsic Clearance, CLint micr",[4]; pHLM,0.156 ± 0.027 mL min^−1 mg Microsomal Protein^−1
same,"Hepatic extraction ratio, EH",[4]; [13],0.27 ± 0.034
same,"Predicted in vivo hepatic clearance, CLH",[4]; [13],5.75 mL/min/kg
same,"Hepatic extraction ratio, EH",[4]; [14],0.35 ± 0.038
same,"Predicted in vivo hepatic clearance, CLH",[4]; [14],7.27 ± 0.81 mL/min/kg
same,"fraction unbound at 5 h, 10 µg mL^−1","[7]; 10 µg mL^−1, read-out: PPB (%) (converted)",0.062
same,"fraction unbound at 5 h, 10 µg mL^−1","[7]; plasma, read-out: Fraction Unbound (fu)",0.062 ± 0.0007
same,"remaining at 3 h, 5 µM",[8]; [15],99.5 ± 5.8%
same,"remaining at 3 h, 5 µM",[8]; [16],97.3 ± 6.4%
"CC(C)C(NC(=O)c1nn(CC2CCCCC2)c2ccccc12)C(N)=O (centres unmarked) [AB-[…] (11), N-[1-amino-3-methyl-1-oxobutan-2-yl]-1-(cyclohexylmethyl)-1H-indazole-3-carboxamide]",chromatographic logD,[2],3.71
"COC(=O)C(NC(=O)c1cn(CCCCCF)c2ccccc12)C(C)(C)C (centres unmarked) [5F-MDMB-PICA (3), methyl 2-[1-(5-fluoropentyl)-1H-indole-3-carboxamido]-3,3-dimethylbutanoate]",chromatographic logD,[2],4.06
"COC(=O)C(NC(=O)c1nn(CCCCCF)c2ccccc12)C(C)(C)C (centres unmarked) [5F-MDMB-PINACA (2), methyl 2-[1-(5-fluoropentyl)-1H-indazole-3-carboxamido]-3,3-dimethylbutanoate]",CLH prediction lower than literature prediction without PPB,[4]; pHLM,4 fold
same,EH prediction lower than literature prediction without PPB,[4]; pHLM,4 fold
same,chromatographic logD,[2],4.5
same,CLint micr,[3],271 µL/min/mg
same,t1/2,[3],3.1 min
same,CLint,[3],256.2 mL/min/kg
"COC(=O)[C@@H](NC(=O)c1nn(CCCCCF)c2ccccc12)C(C)(C)C [(S)-5F-MDMB-PINACA (2), methyl 2-[1-(5-fluoropentyl)-1H-indazole-3-carboxamido]-3,3-dimethylbutanoate]","Predicted In Vivo Hepatic Clearance, CLH",[5],8.05 ± 1.15 mL/min/kg
same,"Hepatic extraction ratio, EH",[5]; from pHHeps incubations,0.38 ± 0.055
same,half-life,[5]; pHHep lot HUE50-P,13.2 ± 3.4 min
same,"Hepatic extraction ratio, EH",[5]; [9],0.37
same,"Predicted in vivo hepatic clearance, CLH",[5]; [9],7.67 mL/min/kg
same,"% parent compound remaining, Average","[5]; pHHeps, 3 min",77.3%
same,"% parent compound remaining, Average","[5]; pHHeps, 6 min",66.9%
same,"% parent compound remaining, Average","[5]; pHHeps, 9 min",57.5%
same,"% parent compound remaining, Average","[5]; pHHeps, 15 min",48.3%
same,"% parent compound remaining, Average","[5]; pHHeps, 30 min",21.1%
same,"% parent compound remaining, Average","[5]; pHHeps, 45 min",10.6%
same,"% parent compound remaining, Average","[5]; pHHeps, 60 min",5.6%
same,CLint scaled at 0.5 µM,[6],559 mL/min/kg
same,half-life at 0.5 µM,[6]; [10],13 ± 3.3 min
same,half-life at 0.5 µM,"[6]; half-life, pHHep lot HUE50-N",13.3 ± 3.4 min
same,"Predicted In Vivo Hepatic Clearance, CLH",[4],4.76 ± 0.17 mL/min/kg
same,"Hepatic extraction ratio, EH",[4]; from pHLM incubations,0.23 ± 0.008
same,CLint scaled at 0.5 µM,[4]; [11],171 mL/min/kg
same,CLint scaled at 0.5 µM,[4]; [12],240 ± 11 mL/min/kg
same,half-life at 0.5 µM,[4],6.7 ± 0.31 min
same,"% parent compound remaining, Average","[4]; pHLM, 3 min",69.9%
same,"% parent compound remaining, Average","[4]; pHLM, 6 min",51.7%
same,"% parent compound remaining, Average","[4]; pHLM, 9 min",39.0%
same,"% parent compound remaining, Average","[4]; pHLM, 15 min",22.7%
same,"% parent compound remaining, Average","[4]; pHLM, 30 min",6.1%
same,"Microsomal Intrinsic Clearance, CLint micr",[4]; pHLM,0.207 ± 0.009 mL min^−1 mg Microsomal Protein^−1
same,"Hepatic extraction ratio, EH",[4]; [13],0.15 ± 0.006
same,"Predicted in vivo hepatic clearance, CLH",[4]; [13],3.18 mL/min/kg
same,"Hepatic extraction ratio, EH",[4]; [14],0.20 ± 0.007
same,"Predicted in vivo hepatic clearance, CLH",[4]; [14],4.22 ± 0.15 mL/min/kg
same,PPB (%),"[7]; equilibrium dialysis 5 h, 10 µg mL^−1",97.8 ± 0.19%
same,Fraction Unbound (fu),"[7]; equilibrium dialysis 5 h, plasma",0.022 ± 0.0019
same,"remaining at 3 h, 5 µM",[8]; [15],97 ± 1.1%
same,"remaining at 3 h, 5 µM",[8]; [16],92.5 ± 10.2%
